Assay results: ChEMBL document CHEMBL1201862, “PubChem BioAssay data set” (2004)
Activity calls are given as the source filed them.

How the values were obtained:
[1] = molecular target: T1, Sentrin-specific protease 8 (Homo sapiens, UniProt Q96LD8); assay: inhibition of human SENP8 cleavage activity – biochemical, luminescence, SAR follow-up (AID 504501); assay type: functional
T1 sequence (Q96LD8 whole entry): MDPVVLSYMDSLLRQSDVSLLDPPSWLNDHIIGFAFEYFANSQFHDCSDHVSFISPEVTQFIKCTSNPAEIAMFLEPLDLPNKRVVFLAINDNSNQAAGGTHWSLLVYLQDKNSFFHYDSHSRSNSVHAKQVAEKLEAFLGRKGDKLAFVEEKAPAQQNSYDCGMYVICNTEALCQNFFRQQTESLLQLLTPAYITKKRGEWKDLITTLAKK

Caspase-3 = molecular target: T2, Caspase-3 (Homo sapiens, UniProt P42574); assay: SAR Analysis of small molecule inhibitors of Sentrin-specific proteases (SENPs) using a Caspase-3 Selectivity assay. [Related pubchem assays (depositor defined):AID2540, AID2599, AID434973, AID489001]; assay type: functional
T2 sequence (P42574 whole entry): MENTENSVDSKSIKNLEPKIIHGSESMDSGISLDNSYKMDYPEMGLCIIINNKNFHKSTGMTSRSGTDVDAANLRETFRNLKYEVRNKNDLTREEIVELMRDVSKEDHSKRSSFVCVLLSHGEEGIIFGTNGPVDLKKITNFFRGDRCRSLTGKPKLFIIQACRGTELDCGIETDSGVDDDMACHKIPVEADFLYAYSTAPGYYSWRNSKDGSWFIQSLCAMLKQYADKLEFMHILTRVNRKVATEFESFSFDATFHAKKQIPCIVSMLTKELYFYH

[2] = molecular target: T3, Sentrin-specific protease 6 (Homo sapiens, UniProt Q9GZR1); assay: SAR Analysis of small molecule inhibitors of Sentrin-specific protease 6 (SENP6) using a Luminescent assay. [Related pubchem assays (depositor defined):AID2582, AID2599]; assay type: functional
T3 sequence (Q9GZR1 whole entry): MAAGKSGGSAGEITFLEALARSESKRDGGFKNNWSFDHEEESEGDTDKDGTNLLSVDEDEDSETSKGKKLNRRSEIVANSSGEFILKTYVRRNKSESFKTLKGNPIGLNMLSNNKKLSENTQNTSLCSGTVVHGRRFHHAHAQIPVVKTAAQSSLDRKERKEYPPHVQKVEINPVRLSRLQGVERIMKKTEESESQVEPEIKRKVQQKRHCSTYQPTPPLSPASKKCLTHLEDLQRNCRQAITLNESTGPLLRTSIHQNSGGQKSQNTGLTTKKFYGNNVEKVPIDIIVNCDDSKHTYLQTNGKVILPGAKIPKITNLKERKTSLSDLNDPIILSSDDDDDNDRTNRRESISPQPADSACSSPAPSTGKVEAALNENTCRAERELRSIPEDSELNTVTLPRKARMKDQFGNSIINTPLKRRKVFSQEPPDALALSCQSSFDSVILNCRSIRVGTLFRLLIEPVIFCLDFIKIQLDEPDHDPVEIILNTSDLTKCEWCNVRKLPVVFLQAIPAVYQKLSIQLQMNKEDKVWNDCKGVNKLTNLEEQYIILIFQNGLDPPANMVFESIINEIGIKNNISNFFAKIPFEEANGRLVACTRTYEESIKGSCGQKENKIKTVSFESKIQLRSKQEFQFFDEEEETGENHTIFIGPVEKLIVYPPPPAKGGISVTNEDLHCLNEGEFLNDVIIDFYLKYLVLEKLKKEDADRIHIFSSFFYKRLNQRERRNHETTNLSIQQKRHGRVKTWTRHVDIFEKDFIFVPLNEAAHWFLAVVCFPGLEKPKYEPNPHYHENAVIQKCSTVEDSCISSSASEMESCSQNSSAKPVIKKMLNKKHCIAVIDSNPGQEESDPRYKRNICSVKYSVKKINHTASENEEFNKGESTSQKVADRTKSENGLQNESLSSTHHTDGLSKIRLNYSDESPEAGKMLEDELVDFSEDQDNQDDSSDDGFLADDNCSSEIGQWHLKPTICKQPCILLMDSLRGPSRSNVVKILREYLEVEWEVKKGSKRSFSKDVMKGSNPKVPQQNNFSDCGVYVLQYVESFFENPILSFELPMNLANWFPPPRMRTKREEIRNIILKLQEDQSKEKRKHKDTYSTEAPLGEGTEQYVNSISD

[3] = molecular target: T4, Sentrin-specific protease 7 (Homo sapiens, UniProt Q9BQF6); assay: inhibition of human SENP7 cleavage activity – biochemical, luminescence, SAR follow-up (AID 504497); assay type: functional
T4 sequence (Q9BQF6 whole entry): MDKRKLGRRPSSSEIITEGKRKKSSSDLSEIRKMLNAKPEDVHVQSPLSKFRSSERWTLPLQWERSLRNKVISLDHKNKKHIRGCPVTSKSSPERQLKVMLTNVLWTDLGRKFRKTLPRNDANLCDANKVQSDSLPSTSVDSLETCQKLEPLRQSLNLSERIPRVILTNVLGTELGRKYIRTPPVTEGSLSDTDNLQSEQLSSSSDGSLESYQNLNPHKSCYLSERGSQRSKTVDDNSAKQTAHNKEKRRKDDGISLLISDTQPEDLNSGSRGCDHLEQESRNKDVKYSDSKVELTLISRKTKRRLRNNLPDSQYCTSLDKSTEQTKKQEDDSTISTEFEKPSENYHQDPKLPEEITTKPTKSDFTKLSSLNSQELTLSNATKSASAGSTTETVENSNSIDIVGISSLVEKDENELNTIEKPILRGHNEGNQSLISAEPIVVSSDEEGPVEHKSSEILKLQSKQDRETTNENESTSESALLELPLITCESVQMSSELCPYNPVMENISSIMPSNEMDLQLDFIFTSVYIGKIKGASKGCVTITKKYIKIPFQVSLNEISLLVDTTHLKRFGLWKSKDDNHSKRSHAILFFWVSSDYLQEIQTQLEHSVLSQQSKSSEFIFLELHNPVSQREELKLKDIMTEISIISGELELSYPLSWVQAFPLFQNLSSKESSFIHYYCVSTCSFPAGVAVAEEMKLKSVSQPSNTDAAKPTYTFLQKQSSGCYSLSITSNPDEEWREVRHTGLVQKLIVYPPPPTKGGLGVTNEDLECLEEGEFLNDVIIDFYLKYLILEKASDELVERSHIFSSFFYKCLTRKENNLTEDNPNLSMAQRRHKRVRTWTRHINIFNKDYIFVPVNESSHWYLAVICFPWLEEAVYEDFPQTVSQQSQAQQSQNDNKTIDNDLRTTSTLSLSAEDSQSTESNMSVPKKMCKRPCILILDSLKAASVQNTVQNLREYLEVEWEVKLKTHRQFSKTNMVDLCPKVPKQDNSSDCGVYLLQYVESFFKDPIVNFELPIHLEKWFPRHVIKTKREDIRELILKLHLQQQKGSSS

[4] = molecular target: Transitional endoplasmic reticulum ATPase (Homo sapiens, UniProt P55072, C522A); assay: C522A mutant p97 ATPase inhibitors, dose response, counter-screen for p97 inhibitor project, biochemical, luminescence (AID 1544)
[5] = molecular target: Transitional endoplasmic reticulum ATPase (Homo sapiens, UniProt P55072); assay: p97 ATPase inhibitors, dose response, biochemical (AID 1534)
[6] = molecular target: Induced myeloid leukemia cell differentiation protein Mcl-1 (Homo sapiens, UniProt Q07820); assay type: functional
[7] = molecular target: Glucose-6-phosphate 1-dehydrogenase (Homo sapiens, UniProt P11413); assay: inhibition of Homo sapiens G6PD, dose series – biochemical, fluorescence, selectivity assay for P. falciparum G6PD inhibitor project, dose response (AID 504792); assay type: functional
Glucose-6-phosphate 1-dehydrogenase, sequence (P11413 whole entry): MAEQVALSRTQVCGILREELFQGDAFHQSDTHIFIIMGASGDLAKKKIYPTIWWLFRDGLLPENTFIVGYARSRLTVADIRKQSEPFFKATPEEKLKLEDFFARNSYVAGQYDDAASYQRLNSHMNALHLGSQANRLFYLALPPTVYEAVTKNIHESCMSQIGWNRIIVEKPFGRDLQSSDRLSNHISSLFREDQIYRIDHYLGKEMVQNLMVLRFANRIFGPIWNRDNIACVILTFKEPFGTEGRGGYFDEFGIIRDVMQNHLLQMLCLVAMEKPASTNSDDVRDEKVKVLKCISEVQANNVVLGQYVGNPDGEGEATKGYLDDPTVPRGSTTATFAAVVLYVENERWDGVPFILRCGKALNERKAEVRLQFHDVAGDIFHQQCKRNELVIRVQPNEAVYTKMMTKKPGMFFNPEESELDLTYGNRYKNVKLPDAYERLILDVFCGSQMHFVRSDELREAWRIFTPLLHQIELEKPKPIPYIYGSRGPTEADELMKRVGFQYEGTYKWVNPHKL

[8] = molecular target: T5, Cystic fibrosis transmembrane conductance regulator/Golgi-associated PDZ and coiled-coil motif-containing protein (Homo sapiens, UniProt P13569+Q9HD26); assay: potency against CAL PDZ-peptide interaction – biochemical, fluorescence polarization, Cerulean-tagged CAL PDZ, cherry-picks, dose response (AID 504773)
T5 sequence (P13569 whole entry, other chains not shown): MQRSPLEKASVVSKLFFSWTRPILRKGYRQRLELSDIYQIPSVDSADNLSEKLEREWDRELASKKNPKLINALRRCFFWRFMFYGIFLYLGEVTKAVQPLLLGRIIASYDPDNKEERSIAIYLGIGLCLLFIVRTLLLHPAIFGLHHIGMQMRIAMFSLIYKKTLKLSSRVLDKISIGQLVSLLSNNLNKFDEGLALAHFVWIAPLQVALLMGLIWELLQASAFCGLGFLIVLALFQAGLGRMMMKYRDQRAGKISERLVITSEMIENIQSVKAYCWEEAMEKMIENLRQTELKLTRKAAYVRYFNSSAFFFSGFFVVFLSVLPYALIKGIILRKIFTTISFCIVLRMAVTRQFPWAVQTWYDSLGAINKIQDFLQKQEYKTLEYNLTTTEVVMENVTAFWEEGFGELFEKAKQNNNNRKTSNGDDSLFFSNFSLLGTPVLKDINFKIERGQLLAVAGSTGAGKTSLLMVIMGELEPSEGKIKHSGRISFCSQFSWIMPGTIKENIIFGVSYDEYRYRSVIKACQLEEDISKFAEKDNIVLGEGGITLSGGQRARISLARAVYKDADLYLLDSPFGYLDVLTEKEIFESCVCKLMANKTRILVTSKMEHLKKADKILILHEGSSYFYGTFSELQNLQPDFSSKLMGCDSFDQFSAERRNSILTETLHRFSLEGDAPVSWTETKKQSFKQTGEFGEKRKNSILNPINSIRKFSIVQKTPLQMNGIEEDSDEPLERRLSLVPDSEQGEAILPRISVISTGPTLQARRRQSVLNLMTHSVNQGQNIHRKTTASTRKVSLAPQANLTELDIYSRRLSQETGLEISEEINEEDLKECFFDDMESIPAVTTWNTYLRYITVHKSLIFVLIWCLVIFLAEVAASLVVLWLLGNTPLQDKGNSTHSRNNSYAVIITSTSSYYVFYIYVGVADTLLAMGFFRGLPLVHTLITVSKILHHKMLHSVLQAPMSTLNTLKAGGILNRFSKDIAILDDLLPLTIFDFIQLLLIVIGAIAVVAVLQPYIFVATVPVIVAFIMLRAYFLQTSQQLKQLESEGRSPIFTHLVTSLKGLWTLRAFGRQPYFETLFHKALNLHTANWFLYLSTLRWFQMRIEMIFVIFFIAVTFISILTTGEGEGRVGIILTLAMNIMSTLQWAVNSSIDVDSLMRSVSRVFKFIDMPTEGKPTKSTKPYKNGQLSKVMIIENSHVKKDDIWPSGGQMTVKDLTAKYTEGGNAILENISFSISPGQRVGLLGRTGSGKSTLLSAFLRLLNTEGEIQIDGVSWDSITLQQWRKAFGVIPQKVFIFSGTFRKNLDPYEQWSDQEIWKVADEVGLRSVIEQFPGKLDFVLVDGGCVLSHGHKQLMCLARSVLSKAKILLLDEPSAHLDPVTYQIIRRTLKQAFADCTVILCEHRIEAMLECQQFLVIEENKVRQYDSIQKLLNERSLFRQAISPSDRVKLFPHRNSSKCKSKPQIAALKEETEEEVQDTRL

Hexokinase HKDC1 = Hexokinase HKDC1 (Homo sapiens, UniProt Q2TB90); assay: inhibition of HKDC1 glucose phosphorylation – biochemical, W721R variant, dose response (AID 504729); assay type: functional
Hexokinase HKDC1, sequence (Q2TB90 whole entry): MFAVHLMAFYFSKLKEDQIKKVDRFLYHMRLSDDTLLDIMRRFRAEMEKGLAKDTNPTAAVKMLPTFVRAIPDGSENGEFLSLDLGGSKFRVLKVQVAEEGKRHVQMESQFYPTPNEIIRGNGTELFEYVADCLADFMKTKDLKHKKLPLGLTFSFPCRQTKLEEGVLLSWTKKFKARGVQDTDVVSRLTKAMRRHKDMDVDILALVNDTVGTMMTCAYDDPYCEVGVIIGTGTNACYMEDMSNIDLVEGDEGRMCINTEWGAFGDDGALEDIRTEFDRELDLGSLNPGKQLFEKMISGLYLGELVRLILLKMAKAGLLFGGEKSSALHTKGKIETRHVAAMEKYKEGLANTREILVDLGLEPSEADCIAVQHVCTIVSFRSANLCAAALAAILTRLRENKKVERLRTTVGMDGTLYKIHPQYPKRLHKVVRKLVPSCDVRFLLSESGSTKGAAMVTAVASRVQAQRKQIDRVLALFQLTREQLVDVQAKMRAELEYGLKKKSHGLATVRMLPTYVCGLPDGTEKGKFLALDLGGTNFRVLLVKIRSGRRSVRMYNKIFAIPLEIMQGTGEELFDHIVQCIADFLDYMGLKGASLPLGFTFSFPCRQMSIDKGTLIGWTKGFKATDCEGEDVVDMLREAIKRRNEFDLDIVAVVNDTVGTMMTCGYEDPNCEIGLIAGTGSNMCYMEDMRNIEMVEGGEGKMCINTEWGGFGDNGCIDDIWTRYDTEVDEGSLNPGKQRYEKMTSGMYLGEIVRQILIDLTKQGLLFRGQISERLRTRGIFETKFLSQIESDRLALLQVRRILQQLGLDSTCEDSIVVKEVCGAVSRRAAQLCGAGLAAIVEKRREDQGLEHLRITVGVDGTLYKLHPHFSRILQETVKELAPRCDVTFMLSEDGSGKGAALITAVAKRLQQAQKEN

Vero = assay: viability of Vero cells under compound – cytotoxicity control for flavivirus capping enzyme inhibitors (AID 588742); assay type: functional; details: Chlorocebus sabaeus
Genome polyprotein = Genome polyprotein (dengue virus type 2, UniProt P29990); assay: flavivirus cap methylation enzyme inhibition – biochemical, confirmation dose response, primary screen (AID 588689); assay type: functional
Genome polyprotein, sequence (P29990 2492-3391 limits assumed): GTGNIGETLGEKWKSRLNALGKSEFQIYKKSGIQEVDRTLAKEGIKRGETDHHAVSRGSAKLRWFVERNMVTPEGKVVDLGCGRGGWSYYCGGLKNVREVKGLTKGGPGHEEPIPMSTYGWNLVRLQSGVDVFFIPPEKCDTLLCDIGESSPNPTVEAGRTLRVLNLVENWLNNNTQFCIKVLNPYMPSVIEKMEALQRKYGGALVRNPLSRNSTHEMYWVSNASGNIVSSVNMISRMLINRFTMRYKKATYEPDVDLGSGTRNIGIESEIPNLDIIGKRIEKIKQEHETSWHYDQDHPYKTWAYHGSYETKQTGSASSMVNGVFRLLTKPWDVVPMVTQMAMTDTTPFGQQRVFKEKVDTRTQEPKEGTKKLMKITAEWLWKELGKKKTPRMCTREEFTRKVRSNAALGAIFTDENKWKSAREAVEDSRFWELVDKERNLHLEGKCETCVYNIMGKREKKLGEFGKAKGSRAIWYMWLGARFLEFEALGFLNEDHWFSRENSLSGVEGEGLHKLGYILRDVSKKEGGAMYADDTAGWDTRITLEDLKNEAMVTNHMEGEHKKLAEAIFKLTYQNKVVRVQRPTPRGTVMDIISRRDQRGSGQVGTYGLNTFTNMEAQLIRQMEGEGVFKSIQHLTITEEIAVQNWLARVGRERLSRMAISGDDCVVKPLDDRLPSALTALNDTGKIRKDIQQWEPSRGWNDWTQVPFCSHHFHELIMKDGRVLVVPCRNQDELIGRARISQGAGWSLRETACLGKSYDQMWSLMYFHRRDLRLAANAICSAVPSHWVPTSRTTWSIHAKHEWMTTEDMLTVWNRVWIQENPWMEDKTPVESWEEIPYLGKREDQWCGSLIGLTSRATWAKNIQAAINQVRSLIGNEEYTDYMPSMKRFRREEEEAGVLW

[9] = molecular target: T6, Polyadenylate-binding protein 1 (Homo sapiens, UniProt P11940); assay: MLLE binding blockers, Cy5 peptide tracer – biochemical, fluorescence polarization, Cy5-PAM2 peptide, secondary, miRNA deadenylation inhibitor project, dose response (AID 602260); assay type: functional; details: read-out: IC50_Mean
T6 sequence (P11940 whole entry, the tested form may be a part): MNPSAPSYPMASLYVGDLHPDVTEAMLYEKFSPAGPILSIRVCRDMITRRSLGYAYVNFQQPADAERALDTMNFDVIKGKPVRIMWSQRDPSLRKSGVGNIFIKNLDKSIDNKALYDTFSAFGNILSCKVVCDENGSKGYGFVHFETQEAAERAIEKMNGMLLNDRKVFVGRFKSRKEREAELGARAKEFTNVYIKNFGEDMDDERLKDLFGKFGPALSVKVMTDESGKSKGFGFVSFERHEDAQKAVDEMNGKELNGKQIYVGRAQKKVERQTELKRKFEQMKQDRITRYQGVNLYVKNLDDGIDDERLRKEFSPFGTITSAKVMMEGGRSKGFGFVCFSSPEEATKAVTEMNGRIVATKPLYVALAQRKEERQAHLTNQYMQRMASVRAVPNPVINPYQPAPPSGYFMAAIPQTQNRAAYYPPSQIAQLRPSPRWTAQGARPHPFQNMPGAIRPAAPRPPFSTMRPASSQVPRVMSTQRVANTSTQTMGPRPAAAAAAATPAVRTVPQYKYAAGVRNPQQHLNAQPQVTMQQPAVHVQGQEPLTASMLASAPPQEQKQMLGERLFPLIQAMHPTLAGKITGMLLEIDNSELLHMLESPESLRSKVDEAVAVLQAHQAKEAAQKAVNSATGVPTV

[10] = molecular target: T6, Polyadenylate-binding protein 1; assay: MLLE domain peptide-binding blockers, IC50 – biochemical, fluorescence polarization, FITC-PAM2 peptide, dose response (AID 602259); assay type: functional; details: read-out: IC50_Mean
[11] = disruptors of CAL PDZ reporter peptide binding – biochemical, fluorescence polarization, untagged CAL PDZ, dry powder, dose response (AID 602255); assay type: functional
[12] = molecular target: T5, Cystic fibrosis transmembrane conductance regulator/Golgi-associated PDZ and coiled-coil motif-containing protein; assay: disruption of CAL PDZ–reporter peptide interaction – biochemical, fluorescence polarization, Cer-tagged CAL PDZ, dry powder, dose response (AID 602253); assay type: functional
[13] = viability of BHK-21 cells – cell-based, secondary screen, cytotoxicity control for flavivirus guanylyltransferase probe project (AID 624078); assay type: functional
[14] = A549 cell cytotoxicity, dose response, cytotoxicity control, plate reader, cherry-pick, antagonist series (AID 743412); assay type: functional, cell-based
[15] = toxicity toward HepG2 liver cells – cell-based, plate reader, cherry-pick, antagonist series, cytotoxicity control, dose response (AID 743416); assay type: functional
[16] = molecular target: T7, Tyrosyl-DNA phosphodiesterase 2 (Homo sapiens, UniProt O95551); assay: potency against TDP2 phosphodiesterase activity – biochemical, epi absorbance, IC50, dose response (AID 743297)
T7 sequence (O95551 whole entry): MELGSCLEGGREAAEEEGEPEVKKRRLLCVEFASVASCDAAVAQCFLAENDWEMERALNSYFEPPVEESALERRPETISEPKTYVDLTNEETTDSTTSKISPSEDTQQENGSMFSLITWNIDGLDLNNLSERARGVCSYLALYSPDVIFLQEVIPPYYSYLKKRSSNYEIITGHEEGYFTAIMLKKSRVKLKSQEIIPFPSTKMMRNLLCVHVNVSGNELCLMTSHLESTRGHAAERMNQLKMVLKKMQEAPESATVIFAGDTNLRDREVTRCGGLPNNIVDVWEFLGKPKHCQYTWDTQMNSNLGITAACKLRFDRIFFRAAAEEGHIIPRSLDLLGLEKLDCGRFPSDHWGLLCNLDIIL

[17] = blockade of melanocortin 4 receptor signaling – cell-based, plate reader, cherry pick, counter-screen for LGR2 antagonist project, dose response (AID 743444); assay type: functional;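 further: transfected HEK 293 cells stimulated with alpha-MSH peptide; potency of inhibitors of the alpha-MSH evoked signal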
[18] = viability loss in HEK293 cells – cell-based, plate reader, cherry-picked samples, cytotoxicity control, dose response (AID 743446); assay type: functional
HEK293 = assay: EBV LMP1 TES2 canonical NF-kB signalling blockers – cell-based, HEK293, luciferase, cherry-pick, dose response (AID 588343); assay type: functional; details: Homo sapiens
[19] = molecular target: Latent membrane protein 1 (Human herpesvirus 4 (strain B95-8), UniProt P03230); assay: LMP1 TES1 pathway selectivity over dsRED control – imaging, HEK293T, dual-color eGFP/dsRED, cherry-picks, selectivity assay for LMP1 NF-kB inhibitor project, dose response (AID 588398); assay type: functional, cell-based
Latent membrane protein 1, sequence (P03230 whole entry): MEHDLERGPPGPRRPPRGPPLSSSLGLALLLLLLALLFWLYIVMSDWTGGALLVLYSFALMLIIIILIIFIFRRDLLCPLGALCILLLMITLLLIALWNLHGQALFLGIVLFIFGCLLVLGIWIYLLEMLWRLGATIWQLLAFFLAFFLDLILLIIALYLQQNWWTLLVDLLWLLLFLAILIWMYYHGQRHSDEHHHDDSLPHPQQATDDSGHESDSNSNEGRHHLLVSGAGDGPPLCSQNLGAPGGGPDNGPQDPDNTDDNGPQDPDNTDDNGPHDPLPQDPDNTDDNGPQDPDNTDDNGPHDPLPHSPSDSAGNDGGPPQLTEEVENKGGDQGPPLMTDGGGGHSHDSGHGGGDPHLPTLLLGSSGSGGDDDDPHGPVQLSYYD

CC(N/C=C1/C(=O)N(c2nc3ccccc3s2)N=C1C(F)(F)F)C12CC3CC(CC(C3)C1)C2 (centres undefined)
active: IC50 [1] 86.9 µM | IC50 (Caspase-3) 40.7 µM | IC50 [2] 77.3 µM | IC50 [3] 87.3 µM

O=C(O)CSc1cc(NS(=O)(=O)c2cccc([N+](=O)[O-])c2)c2ccccc2c1O
active: IC50 [6] 13.6 µM | IC50 [7] 12.2 µM | AC50 [8] 21.7 µM | IC50 (Hexokinase HKDC1) 5.62 µM | CC50 (Vero) 26.5 µM | IC50 (Genome polyprotein) 5.4 µM | AC50 [11] 52 µM | AC50 [12] 44.7 µM | CC50 [13] 7.45 µM | AC50 [14] 17.6 µM | AC50 [15] 12.1 µM | AC50 [17] 42.7 µM | AC50 [18] 21.2 µM
inactive: IC50 [9] > 66 µM | IC50 [10] 35.5 µM | IC50 [16] 12.9 µM
> 50 µM (not active): IC50 [5]
17.4 µM (not active): IC50 [4]

COc1cccc(CNc2ncnc3ccc(-c4c(C)noc4C)cc23)c1
active: AC50 (HEK293) 10.3 µM | AC50 [19] 14.1 µM
